In patent US20250066350A1, “AROMATIC HETEROCYCLE-SUBSTITUTED COMPOUNDS, AND PREPARATION METHOD THEREFOR AND USE THEREOF” (Innovstone Therapeutics Limited, priority 2021, published 2025):
Where two headings read alike, the source gives them in different places.

Tests used:
LoVo cells = assay: LoVo cell proliferation experiment (CellTiter-Glo, intracellular ATP); type: cell-based; details: LoVo human colon cancer cells, 4 days, read-out: IC50 for inhibition of LoVo cell proliferation
Procedure: The following method is used to evaluate the inhibitory effect of the compounds of the present invention on LoVo cell proliferation according to the IC50 values by means of detecting the intracellular ATP content. The experimental method is briefly described as follows:
1. LoVo, human colon cancer tumor cells (Co-bioer, CBP60032)
LoVo cells were cultured in F-12K medium containing 10% FBS and passaged 2 to 3 times a week at a split ratio of 1:3 or 1:5. During passage, the cells were trypsinized and transferred to a centrifuge tube. The tube was centrifuged at 1000 rpm for 5 minutes, the supernatant medium was discarded, and fresh medium was added to resuspend the cells. 100 μL of cell suspension at a density of 1.5×10^4 cells/mL was added to a 96-well cell culture plate, and 100 μL of complete medium only was added to the periphery wells of the 96-well plate. The culture plate was incubated in an incubator for 24 hours (37° C., 5% CO2).
The sample to be tested was diluted to 1 mM with DMSO, diluted 3-fold serially to 8 concentrations, and prepared to 200× dilution with cell culture medium. Blank and control wells were set. 5 μL of the solution containing the compound to be tested prepared in gradient concentrations was added to 95 μL of fresh medium. 100 μL of 1× culture medium containing the compound was added to the culture plate. The culture plate was incubated in an incubator for 4 days (37° C., 5% CO2). 50 μL of CellTiter-Glo reagent was added to each well of the 96-well cell culture plate, and the plate was placed at room temperature in the dark for 5-10 min. The chemiluminescent signal values were read in PHERAstar, and data were processed using GraphPad software.
The inhibitory effect of the compounds of the present invention on LoVo cell proliferation can be determined by the test described above, and the measured IC50 values are shown in Table 2.

SNU-601 cells = assay: SNU-601 cell proliferation experiment (CellTiter-Glo, intracellular ATP); type: cell-based; details: SNU-601 human gastric cancer cells, 5 days, read-out: IC50 for inhibition of SNU-601 cell proliferation
Procedure: The following method is used to evaluate the inhibitory effect of the compounds of the present disclosure on SNU-601 cell proliferation according to the IC50 values by means of detecting the intracellular ATP content. The experimental method is briefly described as follows:
1. SNU-601, human gastric cancer tumor cells (Co-bioer, CBP60507)
SNU-601 cells were cultured in RPMI 1640 medium containing 10% FBS and passaged 2 to 3 times a week at a split ratio of 1:5 or 1:10. During passage, the cells were trypsinized and transferred to a centrifuge tube. The tube was centrifuged at 1000 rpm for 5 minutes, the supernatant medium was discarded, and fresh medium was added to resuspend the cells. 195 μL of cell suspension at a density of 5.128×10^3 cells/mL was added to a 96-well cell culture plate, and 200 μL of complete medium only was added to the periphery wells of the 96-well plate. The culture plate was incubated in an incubator for 24 hours (37° C., 5% CO2).
The sample to be tested was diluted to 2 mM with DMSO, diluted 3-fold serially to 10 concentrations. Blank and control wells were set. 10 μL of the solution containing the compound to be tested prepared in gradient concentrations was added to 50 μL of fresh medium. 5 μL of the above culture medium solution containing the compound was added to the culture plate. The culture plate was incubated in an incubator for 5 days (37° C., 5% CO2). 50 μL of CellTiter-Glo reagent was added to each well of the 96-well cell culture plate after discarding 100 μL/well, and the plate was shaken at room temperature in the dark for 10 min. The chemiluminescent signal values were read in PHERAstar, and data were processed using GraphPad software.
The inhibitory effect of the compounds of the present invention on SNU-601 cell proliferation can be determined by the test described above, and the measured IC50 values are shown in Table 3.

ATR enzyme = ATR enzyme (Homo sapiens (Human), UniProt Q13535); assay: Inhibitory effect on ATR enzyme (HTRF, phospho-P53); type: biochemical; details: 90 minutes incubation, 150 nM ATP final; read-out: IC50 for ATR enzyme inhibition
Sequence of ATR enzyme (Q13535 whole entry): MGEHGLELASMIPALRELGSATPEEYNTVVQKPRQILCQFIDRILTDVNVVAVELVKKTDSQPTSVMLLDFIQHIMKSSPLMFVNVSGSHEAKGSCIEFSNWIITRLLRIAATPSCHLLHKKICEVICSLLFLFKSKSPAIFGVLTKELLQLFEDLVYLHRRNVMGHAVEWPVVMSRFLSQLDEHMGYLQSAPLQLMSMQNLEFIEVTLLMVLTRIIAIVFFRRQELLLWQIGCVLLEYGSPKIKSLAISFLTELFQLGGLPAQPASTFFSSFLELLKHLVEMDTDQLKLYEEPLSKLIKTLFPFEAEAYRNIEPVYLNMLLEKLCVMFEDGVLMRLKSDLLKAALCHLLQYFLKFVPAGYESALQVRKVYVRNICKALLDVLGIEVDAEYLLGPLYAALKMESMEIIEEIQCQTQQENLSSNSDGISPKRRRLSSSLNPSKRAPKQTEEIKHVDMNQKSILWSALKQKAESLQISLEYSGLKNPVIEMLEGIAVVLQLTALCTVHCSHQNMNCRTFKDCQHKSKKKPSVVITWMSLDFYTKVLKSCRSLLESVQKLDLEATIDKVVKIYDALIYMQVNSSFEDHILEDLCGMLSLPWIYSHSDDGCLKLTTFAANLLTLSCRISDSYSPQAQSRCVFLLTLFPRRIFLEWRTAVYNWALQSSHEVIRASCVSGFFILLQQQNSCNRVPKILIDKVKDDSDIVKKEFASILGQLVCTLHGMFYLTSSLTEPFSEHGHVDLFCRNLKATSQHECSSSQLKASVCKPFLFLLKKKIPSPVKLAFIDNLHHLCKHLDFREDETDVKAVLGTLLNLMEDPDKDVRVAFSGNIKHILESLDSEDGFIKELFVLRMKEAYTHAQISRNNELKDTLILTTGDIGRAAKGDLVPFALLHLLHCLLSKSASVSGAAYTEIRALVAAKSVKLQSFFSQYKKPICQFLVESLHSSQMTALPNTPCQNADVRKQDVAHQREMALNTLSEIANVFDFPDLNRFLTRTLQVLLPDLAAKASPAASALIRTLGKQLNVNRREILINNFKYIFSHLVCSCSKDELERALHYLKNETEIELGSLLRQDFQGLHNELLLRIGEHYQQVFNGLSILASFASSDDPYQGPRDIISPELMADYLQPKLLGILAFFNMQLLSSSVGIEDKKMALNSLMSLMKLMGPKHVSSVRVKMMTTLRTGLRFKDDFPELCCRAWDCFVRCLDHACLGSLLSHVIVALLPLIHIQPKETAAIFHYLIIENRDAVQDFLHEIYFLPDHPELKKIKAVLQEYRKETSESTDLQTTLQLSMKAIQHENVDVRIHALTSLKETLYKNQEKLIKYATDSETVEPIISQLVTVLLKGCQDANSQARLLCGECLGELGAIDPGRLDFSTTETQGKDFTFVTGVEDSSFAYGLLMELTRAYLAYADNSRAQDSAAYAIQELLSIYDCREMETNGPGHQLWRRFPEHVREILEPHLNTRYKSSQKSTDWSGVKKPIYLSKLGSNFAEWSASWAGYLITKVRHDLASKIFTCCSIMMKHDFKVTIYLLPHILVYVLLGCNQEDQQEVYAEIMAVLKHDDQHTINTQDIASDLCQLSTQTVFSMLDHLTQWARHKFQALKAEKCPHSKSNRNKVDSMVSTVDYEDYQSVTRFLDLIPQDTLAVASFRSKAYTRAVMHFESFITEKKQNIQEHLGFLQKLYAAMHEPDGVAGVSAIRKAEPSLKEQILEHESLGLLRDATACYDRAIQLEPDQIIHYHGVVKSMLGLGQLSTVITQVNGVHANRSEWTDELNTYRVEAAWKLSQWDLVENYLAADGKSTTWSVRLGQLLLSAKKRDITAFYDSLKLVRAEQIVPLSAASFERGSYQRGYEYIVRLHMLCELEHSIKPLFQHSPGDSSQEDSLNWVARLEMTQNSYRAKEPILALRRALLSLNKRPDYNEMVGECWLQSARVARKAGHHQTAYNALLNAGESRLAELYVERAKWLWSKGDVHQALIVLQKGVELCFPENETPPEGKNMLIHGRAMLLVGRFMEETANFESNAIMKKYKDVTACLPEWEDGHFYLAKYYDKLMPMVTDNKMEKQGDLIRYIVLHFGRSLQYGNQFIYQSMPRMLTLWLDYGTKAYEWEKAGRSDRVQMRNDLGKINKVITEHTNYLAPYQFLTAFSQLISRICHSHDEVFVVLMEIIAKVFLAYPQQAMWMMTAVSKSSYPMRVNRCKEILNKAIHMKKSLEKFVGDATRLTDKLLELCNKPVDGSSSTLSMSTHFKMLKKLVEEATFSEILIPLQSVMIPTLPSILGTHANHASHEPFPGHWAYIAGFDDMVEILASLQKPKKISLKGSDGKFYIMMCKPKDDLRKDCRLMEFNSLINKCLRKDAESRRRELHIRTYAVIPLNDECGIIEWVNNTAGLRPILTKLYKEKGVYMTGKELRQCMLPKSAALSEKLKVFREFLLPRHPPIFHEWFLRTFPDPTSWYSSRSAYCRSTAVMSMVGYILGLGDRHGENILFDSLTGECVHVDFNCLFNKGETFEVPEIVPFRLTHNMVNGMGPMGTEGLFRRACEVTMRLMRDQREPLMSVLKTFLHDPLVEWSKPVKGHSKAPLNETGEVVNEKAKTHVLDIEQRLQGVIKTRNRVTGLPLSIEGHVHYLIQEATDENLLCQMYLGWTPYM
Sequence of ATR enzyme (Q8WXE1 whole entry partner): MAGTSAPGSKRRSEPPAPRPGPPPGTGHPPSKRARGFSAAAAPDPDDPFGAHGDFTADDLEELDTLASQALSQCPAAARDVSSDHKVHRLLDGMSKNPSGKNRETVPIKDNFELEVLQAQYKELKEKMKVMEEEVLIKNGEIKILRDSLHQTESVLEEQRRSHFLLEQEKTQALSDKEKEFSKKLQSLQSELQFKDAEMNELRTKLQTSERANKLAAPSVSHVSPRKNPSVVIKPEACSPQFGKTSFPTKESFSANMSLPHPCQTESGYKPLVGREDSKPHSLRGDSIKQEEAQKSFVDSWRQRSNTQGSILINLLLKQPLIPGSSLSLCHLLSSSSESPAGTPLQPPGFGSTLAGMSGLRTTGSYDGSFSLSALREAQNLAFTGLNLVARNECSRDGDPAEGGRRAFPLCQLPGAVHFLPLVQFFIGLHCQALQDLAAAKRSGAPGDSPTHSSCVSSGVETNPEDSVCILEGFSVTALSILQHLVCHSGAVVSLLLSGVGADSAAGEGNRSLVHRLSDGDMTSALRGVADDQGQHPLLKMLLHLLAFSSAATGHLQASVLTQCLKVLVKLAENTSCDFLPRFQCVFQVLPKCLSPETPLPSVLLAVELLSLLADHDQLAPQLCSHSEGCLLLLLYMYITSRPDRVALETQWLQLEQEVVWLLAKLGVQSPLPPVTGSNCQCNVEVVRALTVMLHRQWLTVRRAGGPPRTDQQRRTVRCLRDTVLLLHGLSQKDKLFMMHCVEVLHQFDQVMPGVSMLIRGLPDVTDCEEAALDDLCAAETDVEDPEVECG
Procedure: Test Example 1. Inhibitory Effect of Compounds of the Present Invention on ATR Enzyme
The following method is used to determine the inhibitory effect of the compounds of the present invention on the ATR enzyme. The experimental method is briefly described as follows:
1. ATR enzyme (Eurofins Pharma Discovery Services, 14-953M)
2. GST-tagged P53 protein (Eurofins Pharma Discovery Services, 14-952M)
15 nM ATR enzyme, 80 nM P53 protein, 300 nM ATP (the final concentrations were 40 nM and 150 nM, respectively), and small molecule compounds of various concentrations (the final concentrations (nM) of the ten points were 2985.0, 895.5, 298.5, 110.56, 33.17, 11.06, 4.09, 1.23, 0.41 and 0.15, respectively, and the final dimethyl sulfoxide concentration was 0.498%) were mixed and incubated at room temperature for 90 minutes. 10 μL of 2× cocktail buffer was added to the mixture of ATR, compound and substrate in the assay plate (anti-phospho-p53-Eu and anti-GST-d2 were diluted in the assay buffer). The resulting mixture was centrifuged at 1000 rpm for 30 seconds, and incubated overnight at 4° C. in the dark (a total of 20 μl in each well). The FRET signal (endpoint) was measured in the Envision instrument (HTRF 665/612 ratio was calculated at 665 nm emission and 612 nm emission). Data were processed using GraphPad software.
The inhibitory activity of the compounds of the present invention on the ATR enzyme can be determined by the test described above, and the measured IC50 values are shown in Table 1.

| IC50 (LoVo cells; 96 h) | IC50 (SNU-601 cells; 120 h) | IC50 (ATR enzyme) | IC50 (LoVo cells) | IC50 (SNU-601 cells) | SMILES |
| --- | --- | --- | --- | --- | --- |
| 20 to 100 nM | – | – | – | – | C[C@@H]1COCCN1c1cc(C2(O)CCC3(CC2)CO3)c2cnn(-c3cc[nH]n3)c2n1 (stereo partly drawn) [Compound 2, (R)-6-(6-(3-methylmorpholinyl)-1-(1H-pyrazol-3-yl)-1H-pyrazole[3,4-b]pyridin-4-yl)-1-oxaspiro[2.5]octan-6-ol] |
| ≤ 20 nM | – | – | – | – | COCC#Cc1cc(N2CCOC[C@H]2C)nc2c1cnn2-c1cc[nH]n1 [Compound 5, (R)-4-(4-(3-methoxypropyl-1-alkynyl)-1-(1H-pyrazol-3-yl)-1H-pyrazole[3,4-b]pyridin-6-yl)-3-methylmorpholine] |
| 20 to 100 nM | 10 to 100 nM | – | – | – | C[C@@H]1COCCN1c1cc(-c2ccc(N3CCCCC3=O)cc2)c2cnn(-c3cc[nH]n3)c2n1 [Compound 7, (R)-1-(4-(6-(3-methylmorpholinyl)-1-(1H-pyrazolyl-3-yl)-1H-pyrazolyl[3,4-b]pyridin-4-yl)phenyl)piperidin-2-one] |
| 20 to 100 nM | – | – | – | – | C[C@@H]1COCCN1c1cc(C2CCCOC2)c2cnn(-c3cc[nH]n3)c2n1 (stereo partly drawn) [Compound 13, (3R)-4-(1-(1H-pyrazol-3-yl)-4-(tetrahydro-2H-pyran-3-yl)-1H-pyrazole[3,4-b]pyridin-6-yl)-3-methylmorpholine] |
| 20 to 100 nM | 10 to 100 nM | – | – | – | C[C@@H]1COCCN1c1cc(-c2ccc(NC(=O)c3cccc(S(C)(=O)=O)c3)cc2)c2cnn(-c3cc[nH]n3)c2n1 [Example 145] |
| ≤ 20 nM | ≤ 10 nM | ≤ 10 nM | – | – | C#CC1CCC(O)(c2cc(N3CCOC[C@H]3C)nc3c2cnn3-c2cc[nH]n2)CC1 (stereo partly drawn) [Example 147, (R)-4-ethynyl-1-(6-(3-methylmorpholinyl)-1-(1H-pyrazolyl-3-yl)-1H-pyrazolyl[3,4-b]pyridin-4-yl)cyclohexanol] |
| – | – | ≤ 10 nM | 20 to 100 nM | 10 to 100 nM | C[C@@H]1COCCN1c1cc(-c2ccc(NC(=O)c3ccncc3)cc2)c2cnn(-c3cc[nH]n3)c2n1 [Example 148] |
| – | – | ≤ 10 nM | 20 to 100 nM | 10 to 100 nM | C[C@@H]1COCCN1c1cc(-c2ccc(NC(=O)c3cocn3)cc2)c2cnn(-c3cc[nH]n3)c2n1 [Example 164] |
| 20 to 100 nM | 10 to 100 nM | – | – | – | C[C@@H]1COCCN1c1cc(-c2ccc(N3CCCCCC3=O)cc2F)c2cnn(-c3cc[nH]n3)c2n1 [Example 197] |
| 20 to 100 nM | ≤ 10 nM | ≤ 10 nM | – | – | C[C@@H]1COCCN1c1cc(-c2ccc(NC(=O)N3CCCC3)c(C#N)c2)c2cnn(-c3cc[nH]n3)c2n1 [Example 228] |
| 20 to 100 nM | 10 to 100 nM | ≤ 10 nM | – | – | C[C@@H]1COCCN1c1cc(-c2ccc(NC(=O)c3cocn3)cc2F)c2cnn(-c3cc[nH]n3)c2n1 [Example 235] |
| 20 to 100 nM | 10 to 100 nM | ≤ 10 nM | – | – | C[C@@H]1COCCN1c1cc(-c2ccc(N3CCCCS3(=O)=O)cc2F)c2cnn(-c3cc[nH]n3)c2n1 [Example 239] |
| – | 10 to 100 nM | ≤ 10 nM | – | – | C[C@@H]1COCCN1c1cc(-c2c(F)cc(N3CCCCC3=O)cc2F)c2cnn(-c3cc[nH]n3)c2n1 [Example 240] |
| – | 10 to 100 nM | ≤ 10 nM | – | – | CC1CCCN(c2cc(F)c(-c3cc(N4CCOC[C@H]4C)nc4c3cnn4-c3cc[nH]n3)c(F)c2)C1=O (stereo partly shown) [Example 241] |
| – | 10 to 100 nM | ≤ 10 nM | – | – | C[C@@H]1COCCN1c1cc(-c2ccc(N3CC=CCC3=O)cc2F)c2cnn(-c3cc[nH]n3)c2n1 [Example 243] |
| – | 10 to 100 nM | ≤ 10 nM | – | – | C[C@@H]1COCCN1c1cc(-c2ccc(NC(=O)N3CCCCC3)c(F)c2)c2cnn(-c3cc[nH]n3)c2n1 [Example 244] |

| IC50 (LoVo cells; 96 h) | IC50 (SNU-601 cells; 120 h) | IC50 (ATR enzyme) | IC50 (LoVo cells) | IC50 (SNU-601 cells) | SMILES |
| --- | --- | --- | --- | --- | --- |
| – | 10 to 100 nM | ≤ 10 nM | – | – | C[C@@H]1COCCN1c1cc(-c2ccc(NC(=O)N3CCCC3)cc2F)c2cnn(-c3cc[nH]n3)c2n1 [Example 245] |
| – | 10 to 100 nM | ≤ 10 nM | – | – | CC1CCCN1C(=O)Nc1ccc(-c2cc(N3CCOC[C@H]3C)nc3c2cnn3-c2cc[nH]n2)cc1 (stereo partly shown) [Example 246] |
| – | 10 to 100 nM | ≤ 10 nM | – | – | C[C@@H]1COCCN1c1cc(-c2ccc(NC(=O)N3CCCC3)nc2)c2cnn(-c3cc[nH]n3)c2n1 [Example 250] |
| – | 10 to 100 nM | ≤ 10 nM | – | – | Cc1cc(NC(=O)N2CCCC2)cc(C)c1-c1cc(N2CCOC[C@H]2C)nc2c1cnn2-c1cc[nH]n1 [Example 251] |
| – | 10 to 100 nM | ≤ 10 nM | – | – | Cc1cc(N2CC3CCC(O3)C2=O)ccc1-c1cc(N2CCOC[C@H]2C)nc2c1cnn2-c1cc[nH]n1 (stereo partly shown) [Example 254] |
| – | 10 to 100 nM | ≤ 10 nM | – | – | C[C@@H]1COCCN1c1cc(-c2ccc(N3CC4CCC(O4)C3=O)nc2)c2cnn(-c3cc[nH]n3)c2n1 (stereo partly shown) [Example 255] |
| – | 10 to 100 nM | ≤ 10 nM | – | – | Cc1cc(-c2cc(N3CCOC[C@H]3C)nc3c2cnn3-c2cc[nH]n2)ccc1N1CC2CCC(O2)C1=O (stereo partly shown) [Example 256] |
| – | 10 to 100 nM | ≤ 10 nM | – | – | C[C@@H]1COCCN1c1cc(-c2cnc(N3CC4CCC(O4)C3=O)cc2F)c2cnn(-c3cc[nH]n3)c2n1 (stereo partly shown) [Example 257] |
| – | 10 to 100 nM | ≤ 10 nM | – | – | C[C@@H]1COCCN1c1cc(-c2cc(NC(=O)C3CC3)on2)c2cnn(-c3cc[nH]n3)c2n1 [Example 260] |
| 20 to 100 nM | 10 to 100 nM | ≤ 10 nM | – | – | C[C@@H]1COCCN1c1cc(-c2c(F)cc(N3CC4CCC(O4)C3=O)cc2F)c2cnn(-c3cc[nH]n3)c2n1 (stereo partly shown) [Example 261] |
| – | 10 to 100 nM | ≤ 10 nM | – | – | C[C@@H]1COCCN1c1cc(-c2ccc(N3C(=O)C4C=CC3C4)cc2F)c2cnn(-c3cc[nH]n3)c2n1 (stereo partly shown) [Example 262] |
| – | 10 to 100 nM | ≤ 10 nM | – | – | C[C@@H]1COCCN1c1cc(-c2ccc(N3C(=O)C4CCC3C4)cc2F)c2cnn(-c3cc[nH]n3)c2n1 (stereo partly shown) [Example 263] |
| – | 10 to 100 nM | ≤ 10 nM | – | – | C[C@@H]1COCCN1c1cc(-c2ccc(N3C(=O)C4CCC3CC4)cc2F)c2cnn(-c3cc[nH]n3)c2n1 [Example 264] |
| – | 10 to 100 nM | 10 to 50 nM | – | – | C[C@@H]1COCCN1c1cc(N2CC(NC(=O)C3CCC3)C2)c2cnn(-c3cc[nH]n3)c2n1 [Example 265] |
| 20 to 100 nM | 10 to 100 nM | ≤ 10 nM | – | – | C[C@@H]1COCCN1c1cc(C2(O)CCC(C#N)CC2)c2cnn(-c3cc[nH]n3)c2n1 (stereo partly shown) [RP103, reference compound] |
